Assay results as given in article PMC4414177, “A novel orally active water-soluble inhibitor of human glutathione transferase exerts a potent and selective antitumor activity against human melanoma xenografts” (Oncotarget, 2015).
Values after ≈ are worked out from the molar mass of the structure shown. One block for each compound: values may come before it.

Columns and labels:
[1] = Solubility limits in aqueous buffers; format: physicochemical; settings: thermodynamic from solid
From the text: The solutions obtained were separated from any undissolved matter by centrifugation at 15,000 g and evaluated for drug concentration by recording compound absorbance at 425 nm, using molar extinction coefficients calculated at the same wavelength with diluted standard solutions, prepared in the same matrices.

[2] = Spontaneous reactivity with GSH (UV-visible spectra); format: physicochemical; settings: 40 μM compound, 1 mM GSH, 0.1 M potassium phosphate buffer pH 6.5, 25°C, within 1 h
Protocol: The spontaneous reactivity of the NBDs with GSH was determined at 25°C by recording the UV-visible spectrum of each compound (40 μM) incubated with 1 mM GSH, in 0.1 M potassium phosphate buffer, pH 6.5, at different time points.

GSTP1-1 [3] = biological target: T1, GSTP1-1 (Homo sapiens, UniProt P09211); assay: Sigma complex formation in the GSTP1-1 active site; format: biochemical; settings: 40 μM compound, 40 μM GSTP1-1, 1 mM GSH, pH 6.5, 25°C
T1 construct: made in house; host or cells: Escherichia coli
Protocol: (§1) Human GSTM2-2, GSTP1-1, JNK1a2 and TRAF2 were expressed in Escherichia coli and purified as previously described; protein concentration was determined using the Lowry colorimetric assay. Unless specified otherwise, all chemicals were purchased from Sigma-Aldrich S.r.l. (Milan, Italy).
The ability of GSTP1-1 to stabilize the intermediate σ-complex formed between GSH and the compounds, was evaluated by recording the spectrum of each molecule (40 μM), in 0.1 M potassium phosphate buffer, pH 6.5, before and after the addition of a stoichiometric amount of GSTP1-1 and 1 mM GSH.

GSTP1-1 [4] = biological target: T1, GSTP1-1; assay: Inhibition of GSTP1-1 conjugation activity; format: biochemical
Protocol: as §1
GST activity was determined spectrophotometrically at 340 nm (ε = 9,600 M^−1 cm^−1), as previously reported. […] Fifty percent inhibitory concentration (IC50) values were calculated by fitting the data to Equation 1, where ν is the percentage of the saturated binding sites; [P]t is the total GST concentration and [L]t is the total inhibitor concentration, assuming a 1:1 interaction stoichiometry between the inhibitor and one GST subunit, as well as that the binding sites are equal and independent.

GSTM2-2 = biological target: T2, GSTM2-2 (Homo sapiens, UniProt P28161); assay: Inhibition of GSTM2-2 conjugation activity; format: biochemical; settings: GSTM2-2 5 nM
T2 construct: made in house; host or cells: Escherichia coli
T2 sequence (P28161 1-218): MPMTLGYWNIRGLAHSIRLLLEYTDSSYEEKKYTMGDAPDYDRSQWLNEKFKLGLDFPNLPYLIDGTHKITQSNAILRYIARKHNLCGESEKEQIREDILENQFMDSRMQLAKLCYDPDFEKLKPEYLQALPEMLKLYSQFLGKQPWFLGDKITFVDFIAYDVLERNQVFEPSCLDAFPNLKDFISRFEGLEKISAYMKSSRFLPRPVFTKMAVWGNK
Protocol: as §1
GST activity was determined spectrophotometrically at 340 nm (ε = 9,600 M^−1 cm^−1), as previously reported. Inhibition experiments were performed by measuring GSTP1-1 (20 nM) or GSTM2-2 (5 nM) activities in the presence of various amounts of the selected NBD derivative (from 0.1 to 20 μM with GSTP1-1, and from 0.005 and 1 μM with GSTM2-2). Fifty percent inhibitory concentration (IC50) values were calculated by fitting the data to Equation 1, where ν is the percentage of the saturated binding sites; [P]t is the total GST concentration and [L]t is the total inhibitor concentration, assuming a 1:1 interaction stoichiometry between the inhibitor and one GST subunit, as well as that the binding sites are equal and independent.

A375 = assay: Cell growth inhibition, SRB assay; format: cell-based; settings: Homo sapiens, A-375, A375, 48 h
Protocol: (§2) The IC50 values for each compound were then evaluated by the SRB assay.

G-361 = assay: Cell growth inhibition, SRB assay; format: cell-based; settings: Homo sapiens, G-361, 48 h
Protocol: as §2

IST-MEL-1 = assay: Cell growth inhibition, SRB assay; format: cell-based; settings: Homo sapiens, IST-MEL-1, 48 h
Protocol: as §2

MALME-3M = assay: Cell growth inhibition, SRB assay; format: cell-based; settings: Homo sapiens, 48 h
Protocol: as §2

SK23-MEL = assay: Cell growth inhibition, SRB assay; format: cell-based; settings: Homo sapiens, 48 h
Protocol: as §2

A375 cells [5] = assay: Cell cycle analysis (PI, flow cytometry); format: cell-based, human; settings: A375, pretreatment with SP600125 20 μM, 24 hrs exposure to MC3181
Protocol: A375 and SK23-MEL cells, were fixed with 70% ethanol overnight, stained with PI staining buffer ([…] and 1% Triton X-100) and analyzed by a FACSCalibur (BD Bioscence, San Jose, CA, USA). The percentage of early apoptotic, late apoptotic, and necrotic cells was determined by simultaneous staining of cells with PI (2 μg/ml) and Annexin V-FITC (0.5 μg/ml) (Sigma Aldrich), according to manufacturer's protocol. Flow cytometric data were analyzed by the FlowJo 8.8.6 software (Tree Stare, Inc, Ashland, OR, USA).

A375 cells [6] = assay: Caspase-3 activity in cell lysates; format: cell-based, human; settings: A375, pretreatment with SP600125 20 μM, 24 hrs exposure to MC3181
Protocol: Apoptosis was confirmed by measuring caspase-3 activity, at 25°C, in total cell lysates, using the model fluorescent peptide substrate N-Acetyl-Asp-Glu-Val-Asp-7-amido-4-trifluoromethylcoumarin (Ac-DEVD-AFC). […] Caspase activity was expressed as change in fluorescence per min, per 10^6 cells.

A375 human melanoma = assay: A375 fragment xenograft model, antitumor efficacy; format: in vivo, mice; settings: MC3181 i.v. 8mg/kg/d q1dx5 three weeks
Protocol: With regard to the in vivo fragment tumor model, A375 cells were injected (1×10^7) subcutaneously (s.c.) into the right flank of an athymic Nude-Foxn1nu female mouse, and the established primary tumor was then removed and cut into fragments (2–3 mm diameter) and implanted s.c. into recipient mice. Animals were randomly divided in groups of 7 mice and treatment was initiated when a tumor volume of 0.12 ± 0.01 cm^3 (mean ± SEM) was reached.
The reference drug temozolomide, dissolved in DMSO/PBS 1:1 to a final concentration of 10 mg/ml, was administered i.p. q1dx5 at a dose of 100mg/kg/day.
Primary tumor growth was determined for all animals by caliper measurement (minor and major axis length), three times per week, until they were sacrificed. Primary tumor volume was determined using the following equation: V (cm^3)=(α^2×β)/2 (Eq. 3)
The efficacy of the treatment was also analyzed by calculation of the percentage of Increase in Life Span (% ILS), since this analysis gives an evidence of clinical potency. Survival endpoint for each animal was fixed at the day when tumor volume reached 1.0 cm^3 (A375) or 0.4 cm^3 (SK23-MEL and G-361), and data were used to plot the relative Kaplan-Meier curves. Treatment efficacy was then evaluated by comparing the Median Survival Time (MST) of treated group with the MST of control group, and expressed as percentage of ILS: % ILS=[100×(MSTtreated group)/(MSTcontrol group)]−100 (Eq. 4)
Treatment was considered effective when % ILS > 20%.

[7] = test system: mice bearing human tumor xenografts; assay: Toxicity in tumor-bearing mice (net BW variation, macroscopic autopsy); format: in vivo; settings: during treatment, MC3181 8 mg/kg/day, TMZ 100 mg/kg/day i.p.
Protocol: Toxicity was also evaluated in tumor-bearing mice on the basis of macroscopic autopsy findings, mainly in terms of alteration to the size and color of vital organs, and net BW reduction. The percentage of net BW variation, between the first day of treatment and sacrifice day (or day of interest), was evaluated according to the following equation: % net BW variation =net BW at observation day −net BW at first day of treatment/net BW at first day of treatment ×100 (Eq. 2)

T1 sequence (P09211 2-210 limits assumed): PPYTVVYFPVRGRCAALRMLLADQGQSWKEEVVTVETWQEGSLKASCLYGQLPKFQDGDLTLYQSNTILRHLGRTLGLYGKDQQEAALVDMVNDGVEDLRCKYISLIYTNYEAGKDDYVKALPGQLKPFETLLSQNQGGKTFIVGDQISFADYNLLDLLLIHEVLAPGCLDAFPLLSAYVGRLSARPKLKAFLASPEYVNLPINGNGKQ

solubility ([1]; potassium phosphate buffer, pH 7.4, 0.1 M K-Phosphate buffer): 2000 µM (≈ 571 µg/mL) | solubility ([1]; sodium acetate buffer, pH 2.0, 0.1 M Na-Acetate Buffer): 2000 µM (≈ 571 µg/mL) | solubility ([1]; sodium acetate buffer, pH 5.0, 0.1 M Na-Acetate Buffer): 1900 µM (≈ 542 µg/mL) | decrease of the absorbance value at 430 nm after addition of excess GSH [2]: less than 15% | stability of the σ-complex, rank order (GSTP1-1 [3]): NBDHEX > MC3181 > MC3165 | Selectivity Index IC50GSTP1-1/IC50GSTM2-2 (GSTP1-1 [4]): 78 | IC50 (GSTP1-1 [4]; GSTP1-1 20 nM): 4000 ± 200 nM | IC50 (GSTM2-2): 51 ± 8 nM
SMILES: O=[N+]([O-])c1ccc(SCCOCCO)c2nonc12 [MC3165, 2-(2-((7-nitrobenzo[c][1,2,5]oxadiazol-4-yl)thio)ethoxy)ethan-1-ol]

IC50 (GSTM2-2): ≤ 10 nM | IC50 (A375): 1450 ± 140 nM
SMILES: O=[N+]([O-])c1ccc(SCCCCCCO)c2nonc12 [NBDHEX, 6-((7-nitrobenzo[c][1,2,5]oxadiazol-4-yl)thio)hexan-1-ol, reference compound]
IC50 (G-361): 550 ± 30 nM | IC50 (IST-MEL-1): 1420 ± 50 nM | IC50 (MALME-3M): 1800 ± 120 nM | IC50 (SK23-MEL): 1190 ± 90 nM

SMILES: Oc1c2ccccc2c2c3c(cccc13)N=N2 [SP600125, reference compound]
reduction of the MC3181-elicited increase in the number of cells in Sub-G1 phase (A375 cells [5]): about 40% | reduction of the MC3181-elicited increase of caspase-3 activity (A375 cells [6]): about 50%

SMILES: Cn1nnc2c(C(N)=O)ncn2c1=O [TMZ, temozolomide, reference compound]
%ILS (A375 human melanoma; TMZ i.p. 100 mg/kg/d q1dx5): 35% | tumor growth (A375 human melanoma; TMZ i.p. 100 mg/kg/d q1dx5, from day 13 onward, P < 0.05): significantly delayed tumor growth | decrease in BW [7]: ~15%
